Measured values taken from patent US6469055B2, “Compositions and methods for treatment of neurological disorders and neurodegenerative diseases” (Massachusetts Institute of Technology, priority 1996, dated 2002).
Entries after “also recorded” stand apart in the source; their conditions may differ. Counter-ions that a name gives are not always drawn.

Columns and labels:
[1] = tested on: APP mRNA; assay: APP mRNA, Northern blot, cultured cortical astrocytes; conditions: for effect on APP mRNA: PMA 5 μM or dexnorfenfluramine 100 μM; for effect on the increase in APP mRNA stimulated by PG E2: EGTA or KN-93 100 μM, PG E2 10 μM
Experimental: Pharmacological manipulations are performed in serum-free media on 7-14 DIV confluent astrocytes.
Total RNA from astrocytes grown on 100 mm dishes is extracted by the acid guanidium thiocyanate-phenol-chloroform method. […] In brief, the medium was aspirated and the cells were scraped in 1 mL of TRI Reagent. After incubation for 15 min at room temperature, 0.2 ml chloroform was added, mixed vigorously with TRI Reagent and the mixture was stored for another 15 min at room temperature. After centrifugation at 12,000 g for 15 min, 0.5 ml isopropanol was added to the aqueous phase of the mixture to precipitate RNA. The RNA pellet collected by centrifugation (12,000 g, 15 min at 4° C.) was washed with 70% ethanol. once and solubilized in an appropriate amount of Formazol (Molecular Research Center, Cincinnati, Ohio). […] RNA was blotted onto Hybond polyvinyl membranes by overnight capillary transfer and fixed onto the membranes by UV light illumination. […] Membranes were dried and exposed to Kodak X-ray film for 24-48 h with an Amersham enhancer sheet. The relative amounts of mRNA obtained by hybridization were estimated using densitometric analysis of autoradiographs. The levels of APP mRNA were normalized to the amounts of G3PDH mRNA and expressed as a ratio to the levels of untreated, control cells.

[2] = tested on: APP holoprotein; assay: Cell-associated APP (APP holoprotein), Western blot, cultured cortical astrocytes; conditions: for effect on basal APP holoprotein: p>0.05; for effect on cell-associated APP (APP holoprotein): PMA 5 μM or DNF 100 μM; for effect on the increase in APP holoprotein stimulated by PG E2: PG E2 10 μM; for levels of cellular and amyloidogenic APP holoprotein: aspirin or resveratrol, nano- or micromolar range, cultured astrocytes or neurons; for cellular APP holoprotein compared to untreated cells: antiserum R98
Experimental: Astrocytes are isolated from cortices from postnatal rats. […] In brief, dissected cortices were dissociated by trypsinization and trituration through a flame-polished Pasteur pipette. Cells were plated onto poly-L-lysine coated 35- or 100 mm culture dishes at densities of about 10-25 cells/mm^2. […] Media are changed twice weekly. […] Pharmacological manipulations are performed in serum-free media on 7-14 DIV confluent astrocytes.
To detect cell-associated protein (APP or GFAP), astrocytes from 35 mm dishes are scraped in lysis buffer (60 mM Tris/HCl, 4% SDS, 20% glycerol, 1 mM dithiothreitol), ultrasonicated and boiled for 5 min. The total amount of cell protein per dish, estimated using the bicinchoninic acid assay, is not altered by pharmacological treatments. Bromphenol blue (0.1%) is added to each sample and equal amounts of protein (˜75 mg/lane) are loaded on 10% SDS-polyacrylamide gels.
The amount of media or cell protein loaded for sodium dodecyl sulfate-polyacrylamide gel electrophoresis (10-20% SDS PAGE; Bio-Rad) was normalized for the amount of protein per sample. […] After 2×10 min rinses in TBST, the membranes were incubated in TBST containing an appropriate antibody. Monoclonal antibodies 22C11 and GFAP (both from Boehringer-Mannheim) were used to detect the N-terminus of APP and glial fibrillary acidic protein respectively; antisera R37 and R98 (gifts of Dr. F. Kametani, Tokyo Institute of Psychiatry) were used to detected the C-terminus and KPI motifs of APP respectively; antiserum C8 (gift of Dr. D. Selkoe, Women's Hospital, Harvard Medical School, Cambridge, Mass.) was used to detect the C-terminus of APP.
After an overnight incubation, membranes were rinsed in TBST before being treated for 1h with a peroxidase-linked secondary antibody. After several rinses in TBST, protein bands were visualized on Kodak X-AR films by an enhanced chemiluminescence method (Amersham). Optical densities of the protein bands were quantitated by laser scanning densitometry (LKB, Bromma, Sweden), and normalized to the densities of those bands generated under control conditions.

[3] = tested on: cellular cAMP levels; assay: cAMP assay in cultured astrocytes; type: cell-based, rat; conditions: for effect on cellular cAMP levels stimulated by PG E2: EGTA or KN-93, PG E2 10 μM
Experimental: In brief, after aspirating the medium and rinsing twice with 1 ml ice cold PBS, the cells were scraped in 0.8 ml ice cold ethanol and sonicated. […] After resuspension in 120 μl Tris/EDTA buffer, two duplicate samples of 50 μl each were mixed with the binding protein, [8-^3H] adenosine 3′, 5′-cyclic phosphate tracer and incubated at 2-4° C. for 2 h. A charcoal suspension (100 μl) was added to the samples before centrifugation and 200 μl of the supernatant were removed for. scintillation counting. The amount of cyclic AMP (pmol/mg protein) was estimated by comparing to known standards, and normalized to the amounts of whole cell protein as determined by the bicinchoninic acid assay (Sigma).

[4] = tested on: PI hydrolysis; assay: PI hydrolysis in cultured astrocytes; type: cell-based, rat
Experimental: (§1) Assays of PI hydrolysis are conducted as previously reported. Also, measurements of APPs are conducted as previously reported.

[5] = tested on: APP synthesis; assay: APP synthesis (APP mRNA and holoprotein) in cultured cortical astrocytes; type: cell-based, rat
[6] = tested on: secreted APP (APPs); assay: APPs secretion into the media of cultured cortical astrocytes, Western blot; type: cell-based, rat; conditions: for APPs secretion relative to untreated cells: PMA 5 μM or DNF 100 μM, 1 hour, mAb22C11; for APPs secretion, to that of untreated cells: PMA 5 μM, dexnorfenfluramine 100 μM
Experimental: Astrocytes are isolated from cortices from postnatal rats. […] Media are changed twice weekly.
To detect secreted APP, culture media was collected after drug treatments and phenylmethylsulfonyl fluoride was added to a final concentration of 2 mM. The media samples were then applied to Sephadex PD-10 desalting columns (Pharmacia) and eluted with distilled water. Column eluates were frozen and dried by vacuum centrifugation. The lyophilized proteins were reconstituted in 25 μL water followed by 25 μL of 2X Laemmli gel loading buffer, and boiled for 5 min.
as §1

[7] = tested on: APP holoprotein; assay: Brain APP holoprotein in rats injected with p-chloroamphetamine (PCA) with or without aspirin; type: in vivo, rat; conditions: for brain APP holoprotein relative to control levels: rats, injections of aspirin alone
Text: Neuronal injury can stimulate prostaglandin production., and thereby stimulate APP overexpression. We injected rats with para-chloroamphetamine (PCA), a neurotoxin which causes a loss of serotoninergic terminals in the brain.

[8] = propranolol 50 μM with NE 50 μM
[9] = DFU or DFP 10^-9-10^-3 M, 1 h, cultured astrocytes
[10] = aspirin or resveratrol, 1 h, nano- or micromolar range, cultured astrocytes or neurons

Compound: CC(C)NCC(O)c1ccc(O)c(O)c1 (centres unmarked) [isoproterenol]
- APP mRNA levels versus untreated cells ([1]; 24 h, NE 50 or 100 μM, isoproterenol 50 μM, Northern blot): about 1.6 fold
- APP mRNA, of untreated cells ([1]; NE 50 or 100 μM, isoproterenol 50 μM): 180%
- effect on APP mRNA levels above controls ([1]; about 24 h, NE 50 or 100 μM, Iso 50 μM, 8Br-cAMP […] μM): mimicked

Compound: C=CC[C@@H]1/C=C(\C)C[C@H](C)C[C@H](OC)[C@H]2O[C@@](O)(C(=O)C(=O)N3CCCC[C@H]3C(=O)O[C@H](/C(C)=C/[C@@H]3CC[C@@H](O)[C@H](OC)C3)[C@H](C)[C@@H](O)CC1=O)[C@H](C)C[C@@H]2OC [FK-506]
- effect on basal APP holoprotein ([2]; cyclosporin A or FK-506 50 μM alone): no significant effect
- effect on basal cAMP levels ([3]; cyclosporin A or FK-506 (50 μM) alone): no significant effect

Compound: CC(C)NCC(O)COc1cccc2ccccc12 (centres unmarked) [propranolol]
- effect on basal APP protein levels ([2]; propranolol 50 μM on its own): no significant effect
- effect on the NE-stimulated increase in APP holoprotein [2, 8]: inhibited
- effect on the NE-induced increase in PI hydrolysis [4, 8]: no effect
- effect on the NE- or isoproterenol-stimulated increase in APP mRNA ([1]; propranolol 50 μM): to baseline levels; also recorded: significantly inhibited; also recorded: abolished
- effect on APP synthesis [5]: decrease or inhibit
- effect on the NE-induced increase in cAMP formation [3, 8]: inhibits

Compound: CCCCCCCCCCCCCC(=O)O[C@@H]1[C@@H](C)[C@@]2(O)[C@@H](C=C(CO)C[C@]3(O)C(=O)C(C)=C[C@@H]23)[C@@H]2C(C)(C)[C@]12OC(C)=O [PMA, phorbol 12-myristate 13-acetate]
- effect on cell-associated APP (APP holoprotein) ([2]; 24 h): no effect
- effect on cell-associated APP (APP holoprotein) ([2]; 24 h, listed as phorbol 12-myristate 13-acetate): does not increase
- APPs secretion relative to untreated cells [6]: significantly increases
- APPs secretion, to that of untreated cells [6]: ~3.0 fold
- effect on APP mRNA [1]: does not increase

Compound: CN1CCCC1c1cccnc1.O=C(O)C(O)C(O)C(=O)O.O=C(O)C(O)C(O)C(=O)O (centres unmarked) [nicotine ditartrate]
- astrocytic APP holoprotein relative to untreated cells ([2]; nicotine ditartrate 1, 10 or 100 μM, 24 h, p<0.05): significantly increased
- APP secreted in the media ([6]; nicotine ditartrate 1, 10 or 100 μM, 1 h): decreased

Compound: COc1ccc(S(=O)(=O)N(CCO)c2ccccc2CN(C)CC=Cc2ccc(Cl)cc2)cc1.O=P(O)(O)O [KN-93, N-[2-[[[3-(4′-chlorophenyl)-2-propenyl]methylamino]methyl]phenyl]-N-(2-hydroxyethyl)-4′-methoxy-benzenesulfonamide phosphate]
- effect on basal APP holoprotein ([2]; EGTA or KN-93 100 μM alone): no significant effect
- effect on the increase in APP holoprotein stimulated by PG E2 ([2]; EGTA or KN-93 100 μM, 24 h): significantly inhibited
- effect on the increase in APP mRNA stimulated by PG E2 ([1]; 24 h): significantly inhibited
- effect on basal cAMP levels ([3]; EGTA or KN-93 100 μM alone): no significant effect
- effect on cellular cAMP levels stimulated by PG E2 [3]: Neither EGTA nor KN-93 had a significant effect

Compound: CC1(C)OC(=O)C(c2cccc(F)c2)=C1c1ccc(S(C)(=O)=O)cc1 [DFU, 5,5-dimethyl-3-(3-fluorophenyl)-4-(4-methylsulphonyl)phenyl-2(5H)-furanone]
- levels of cellular APP holoprotein [2, 9]: decreases
- secretion of soluble APPs [6, 9]: increases; also recorded: promotes

Compound: Cl.Cl.O=S(=O)(NCCNC/C=C/c1ccc(Br)cc1)c1cccc2cnccc12 [H-89, H-89 dihydrochloride]
- effect on the increase in APP holoprotein stimulated by PG E2 ([2]; H-89 100 μM, 24 h): completely abolished
- effect on PG E2-stimulated APP mRNA production ([1]; H-89 dihydrochloride): blocked

Compound: Cc1c(C(=O)c2cccc3ccccc23)c2cccc3c2n1[C@H](CN1CCOCC1)CO3 [Win55212]
- effect on APP synthesis [5]: decrease or inhibit

Compound: O=C(O)CN(CCOCCOCCN(CC(=O)O)CC(=O)O)CC(=O)O [EGTA]
- effect on basal APP holoprotein ([2]; EGTA or KN-93 100 μM alone): no significant effect
- effect on the increase in APP holoprotein stimulated by PG E2 ([2]; EGTA or KN-93 100 μM, 24 h): significantly inhibited
- effect on the increase in APP mRNA stimulated by PG E2 ([1]; 24 h): significantly inhibited
- effect on basal cAMP levels ([3]; EGTA or KN-93 100 μM alone): no significant effect
- effect on cellular cAMP levels stimulated by PG E2 [3]: Neither EGTA nor KN-93 had a significant effect

Compound: Oc1ccc(C=Cc2cc(O)cc(O)c2)cc1 [resveratrol]
- levels of cellular and amyloidogenic APP holoprotein ([2]; 1 h): decreased levels; also recorded: decreases
- secretion of soluble APPs [6, 10]: increase; also recorded: promotes

Compound: CCN(CC)CC.Nc1ncnc2c1ncn2[C@@H]1O[C@@H]2COP(O)(=S)O[C@H]2[C@H]1O (some centres unmarked) [Sp-cAMP triethylamine]
- cellular APP holoprotein compared to untreated cells ([2]; Sp-cAMP triethylamine 50 μM, 24 h): 1.6 fold
- cellular APP holoprotein compared to untreated cells ([2]; Sp-cAMP triethylamine 100 μM, 24 h): 1.9 fold
- cellular APP holoprotein compared to untreated cells ([2]; Sp-cAMP triethylamine 150 μM, 24 h): 2.2 fold
- effect on astrocytic APP holoprotein ([2]; Sp-cAMP triethylamine in the absence of PG E2): sufficient to stimulate increases

Compound: NCCNS(=O)(=O)c1cccc2cnccc12 [H9]
- effect on APP synthesis [5]: decrease or inhibit

Compound: C[C@H](N)Cc1cccc(C(F)(F)F)c1 [DNF, dexnorfenfluramine hydrochloride]
- effect on cell-associated APP (APP holoprotein) ([2]; 24 h, hydrochloride): no effect
- effect on cell-associated APP (APP holoprotein) ([2]; 24 h, listed as dexnorfenfluramine, hydrochloride): does not increase
- APPs secretion relative to untreated cells [6]: significantly increases
- APPs secretion, to that of untreated cells [6]: ~2.2 fold
- PI hydrolysis relative to untreated astrocytes ([4]; dexnorfenfluramine 100 μM, p<0.05): ~2.6 fold
- effect on APP mRNA [1]: does not increase

Compound: CC(=O)Oc1ccccc1C(=O)O [aspirin]
- levels of cellular and amyloidogenic APP holoprotein ([2]; 1 h): decreased levels
- levels of cellular and amyloidogenic APP holoprotein ([2]; 1 h, listed as Aspirin): decreases
- secretion of soluble APPs [6, 10]: increase
- secretion of soluble APPs ([6]; aspirin or resveratrol, 1 h, nano- or micromolar range, cultured astrocytes or neurons, listed as Aspirin): promotes
- APP holoprotein levels versus uninjected control rats / effect on the PCA-induced increase ([7]; rats injected with both aspirin and PCA): did not differ; also recorded: attenuated
- brain APP holoprotein relative to control levels [7]: significant decrease
- brain APP holoprotein relative to control levels ([7]; listed as Aspirin): small, but significant decrease
